Measurements from patent US10736968B2, “Cellular signalling inhibitors, their formulations and methods thereof” (INVICTUS ONCOLOGY PVT. LTD., priority 2016, dated 2020).

Columns and labels:
monocytes = experiment: M1/M2 marker expression in IL-4 treated monocytes (FACS); format: cell-based; settings: IL4 24 hours then inhibitor 24 h, CD206, MHC-II, CD86, CD80
Method: FIG. 4. Effect of BLZ-945 and BLN101 (formulated as AK750) in repolarization of the M2-macrophage phenotype formed upon stimulation with IL-4 to the M1-macrophage phenotype. Monocytes were treated with IL-4 for 24 hours, followed by which they were treated with BLZ-945 or BLN101 (formulated as AK750) in basal DMEM media, and cells were collected at different time points. M1 and M2 markers expression on the macrophages and their isotype control was evaluated separately by FACS. Graph represents the representative M1/M2 ratio by taking into account the various individual M1 and M2 markers that were analyzed using FACS. Data are representative of 3 separate experiments.
Activity Studies of Compound of Formula I • Efficacy of BLN101 vs BLZ945 on the ability to inhibit CSF1R in vitro is studied. RAW264.7 cells are treated with BLZ945 (67 nM) or BLN101 (67 nM) for different time points, at the end of which the cells were exposed to CSF1 (10 ng/ml) for 20 min. The cells were then lysed and analyzed for phosphorylated CSF1R levels. […] Efficacy of BLN101 (in formulation AK750) vs BLZ945 on increase in iNOS expression in vitro is studied. […] At different time-points, the cells are harvested and analyzed the population for M1 (MHCII+, CD86+, CD80+) or M2 (CD206+) markers using fluorescence activated cell sorting (FIG. 5d). […]

B16/F10 melanoma = B16/F10 melanoma tumor growth; format: in vivo, mice; settings: 45 mg/kg on day 0, day 4 and day 8
Excerpt: FIG. 6. Effect of BLN101 on tumor growth inhibition. […] To validate the therapeutic efficacy of AK750, we randomly sorted mice bearing B16/F10 melanoma into three groups and treated each group with one of the following: blank vehicle (control); AK750; and BLZ945. The mice injected with vehicle formed large tumors by Day 10 (the day of first injection being Day 0), and consequently were killed. The animals in the other groups were also killed at the same time point to evaluate the effect of the treatments on tumor pathology. […] Changes in body weight were within the acceptable limits.
Activity Studies of Compound of Formula I • Efficacy of BLN101 vs BLZ945 on the ability to inhibit CSF1R in vitro is studied. RAW264.7 cells are treated with BLZ945 (67 nM) or BLN101 (67 nM) for different time points, at the end of which the cells were exposed to CSF1 (10 ng/ml) for 20 min. The cells were then lysed and analyzed for phosphorylated CSF1R levels. […] Efficacy of BLN101 (in formulation AK750) vs BLZ945 on increase in iNOS expression in vitro is studied. It is observed that exposure to Tumor Conditioned Media over 24 h decreases INOS levels. […] At different time-points, the cells are harvested and analyzed the population for M1 (MHCII+, CD86+, CD80+) or M2 (CD206+) markers using fluorescence activated cell sorting (FIG. 5d). […]

Compound | M1 and M2 macrophage markers (monocytes) | tumor growth (B16/F10 melanoma)
CNC(=O)c1cc(Oc2ccc3nc(NC4CCCC[C@H]4OC(=O)CCC(=O)O[C@H]4CC[C@@]5(C)C(=CC[C@H]6[C@@H]7CC[C@H](C(C)CCCC(C)C)[C@@]7(C)CC[C@@H]65)C4)sc3c2)ccn1 (stereo in doubt) [BLN101] | significantly increases the markers associated with M1 macrophages while reducing the M2 macrophage markers | 
CNC(=O)c1cc(Oc2ccc3nc(N[C@@H]4CCCC[C@H]4O)sc3c2)ccn1 [BLZ-945] |  | decreased tumor growth compared with vehicle-treated animals
